Article PMC5603230 (Journal of medicinal chemistry, 2017)

Columns and labels:
[1] = target: T1, PHGDH (Homo sapiens, UniProt O43175); settings: coupled-enzyme assay
T1 sequence (O43175 1-533): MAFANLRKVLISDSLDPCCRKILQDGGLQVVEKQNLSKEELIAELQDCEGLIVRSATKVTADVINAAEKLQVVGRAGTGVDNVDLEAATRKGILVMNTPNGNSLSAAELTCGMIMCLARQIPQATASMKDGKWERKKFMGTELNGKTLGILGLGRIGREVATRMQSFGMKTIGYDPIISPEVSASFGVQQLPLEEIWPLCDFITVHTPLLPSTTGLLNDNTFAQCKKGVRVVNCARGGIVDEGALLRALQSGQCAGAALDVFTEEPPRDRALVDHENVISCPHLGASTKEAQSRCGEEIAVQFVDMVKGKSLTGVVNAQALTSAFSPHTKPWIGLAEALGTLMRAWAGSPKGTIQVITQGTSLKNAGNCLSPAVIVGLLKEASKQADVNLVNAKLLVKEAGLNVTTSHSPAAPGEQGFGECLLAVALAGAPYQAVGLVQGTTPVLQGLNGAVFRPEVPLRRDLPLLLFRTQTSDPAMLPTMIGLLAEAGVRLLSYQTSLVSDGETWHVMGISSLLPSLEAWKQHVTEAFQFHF

[2] = tested on: SiHa; assay: Cell proliferation inhibition, SiHa in serine-replete or -deplete medium; type: cell-based, human; settings: ratio of IC50 in serine-replete to serine-deplete medium
[3] = tested on: HL-60 shCTRL; assay: Cell proliferation inhibition, HL-60 shCTRL in serine-replete or -deplete medium; type: cell-based, human; settings: ratio of IC50 in serine-replete to serine-deplete medium
[4] = target: T1, PHGDH; assay: Ki measurement / competition assay by titrating 3-PG or NAD+; type: biochemical
[5] = target: T1, PHGDH; assay: Rapid dilution; type: biochemical; settings: 160 μM, 45 min at 37 °C, diluted 10-fold

Structure (SMILES)	PHGDH inhibition (IC50, μM) [1]	SiHa IC50+Ser/IC50−Ser [2]	HL-60 shCTRL IC50+Ser/IC50−Ser [3]	mode of action with respect to both substrates (3-PG and NAD+) [4]	recovery of enzymatic activity after dilution [5]
O=C(C(=S)N1CCOCC1)c1cccc(Cl)c1 [compound 24, 1-(3-Chlorophenyl)-2-morpholino-2-thioxoethanone]	no inhibition				
O=C(C(=S)N1CCOCC1)c1ccccc1Cl [compound 23, 1-(2-Chlorophenyl)-2-morpholino-2-thioxoethanone]	no inhibition				
O=C(Nc1ccccc1[N+](=O)[O-])c1ccc(Cl)cc1 [compound 12]		>1.7	>1.2		
O=C(C(=S)N1CCOCC1)c1ccccc1 [compound 19, 1-Phenyl-2-morpholino-2-thioxoethanone]			>5.5	noncompetitive	enzymatic activity is not recovered after dilution
